Measured values taken from patent US12319709B2, “Diaryl trehalose compounds and uses thereof” (THE UNIVERSITY OF MONTANA, priority 2018, dated 2025).

These compounds were tested on RAW264.7 cells (assay: Cytokine (TNFα) response of mouse macrophage cell line; Table 2 'Murine'). Conditions: NR = no response.
Format: cell-based
Design: Maximum cytokine response Murine: unit not given here
Description: Compounds were also tested in a mouse macrophage cell line (FIG. 4B). RAW264.7 cells were subjected to increasing concentrations of the compounds and assessed for production of the cytokine TNFα.

Row | SMILES | Maximum cytokine response Murine | Minimal Effective Concentration Murine
1 | CCOc1cc(C(=O)NC[C@H]2O[C@H](O[C@H]3O[C@H](CNC(=O)c4cc(OCC)c(OCC)c(OCC)c4)[C@@H](O)[C@H](O)[C@H]3O)[C@H](O)[C@@H](O)[C@@H]2O)cc(OCC)c1OCC [UM1110] | 11 | 2.5 µM
2 | CC(C)(C)c1ccc(O)c(C(=O)NC[C@H]2O[C@H](O[C@H]3O[C@H](CNC(=O)c4cc(C(C)(C)C)ccc4O)[C@@H](O)[C@H](O)[C@H]3O)[C@H](O)[C@@H](O)[C@@H]2O)c1 [UM1106] | 11 | 3 µM
3 | CCOc1cc(OCC)cc(C(=O)NC[C@H]2O[C@H](O[C@H]3O[C@H](CNC(=O)c4cc(OCC)cc(OCC)c4)[C@@H](O)[C@H](O)[C@H]3O)[C@H](O)[C@@H](O)[C@@H]2O)c1 [UM1105] | 11 | 3 µM
4 | O=C(OC[C@H]1O[C@H](O[C@H]2O[C@H](COC(=O)c3ccccc3-c3ccccc3)[C@@H](O)[C@H](O)[C@H]2O)[C@H](O)[C@@H](O)[C@@H]1O)c1ccccc1-c1ccccc1 [UM1039] | 0.9 | 33 µM
5 | COc1ccc(C(=O)OC[C@H]2O[C@H](O[C@H]3O[C@H](COC(=O)c4ccc(OC)cc4C(F)(F)F)[C@@H](O)[C@H](O)[C@H]3O)[C@H](O)[C@@H](O)[C@@H]2O)c(C(F)(F)F)c1 [UM1067] | 1.5 | 100 µM
6 | O=C(NC[C@H]1O[C@H](O[C@H]2O[C@H](CNC(=O)c3ccccc3C(F)(F)F)[C@@H](O)[C@H](O)[C@H]2O)[C@H](O)[C@@H](O)[C@@H]1O)c1ccccc1C(F)(F)F [UM1112] | 2 | 100 µM
7 | O=C(OC[C@H]1O[C@H](O[C@H]2O[C@H](CO)[C@@H](O)[C@H](O)[C@H]2O)[C@H](O)[C@@H](O)[C@@H]1O)c1ccc([N+](=O)[O-])cc1[N+](=O)[O-] [UM1119] | 11 | 2.2 µM
8 | Cc1cc(C)c(C(=O)OC[C@H]2O[C@H](O[C@H]3O[C@H](COC(=O)c4c(C)cc(C)cc4C)[C@@H](O)[C@H](O)[C@H]3O)[C@H](O)[C@@H](O)[C@@H]2O)c(C)c1 [UM1115] | 11 | 3.3 µM
9 | O=C(OC[C@H]1O[C@H](O[C@H]2O[C@H](COC(=O)c3cc(O)cc(-c4ccccc4)c3)[C@@H](O)[C@H](O)[C@H]2O)[C@H](O)[C@@H](O)[C@@H]1O)c1cc(O)cc(-c2ccccc2)c1 [UM1061] | 3 | 100 µM
10 | CCc1cc(CC)cc(C(=O)OCC2OC(OC3OC(COC(=O)c4cc(CC)cc(CC)c4)C(O)C(O)C3O)C(O)C(O)C2O)c1 (stereo not drawn) [UM1017] | 2.5 | 4.1 µM
11 | CCc1cc(CC)cc(C(=O)NC[C@H]2O[C@H](O[C@H]3O[C@H](CNC(=O)c4cc(CC)cc(CC)c4)[C@@H](O)[C@H](O)[C@H]3O)[C@H](O)[C@@H](O)[C@@H]2O)c1 [UM1109] | 0.4 | 3.2 µM
12 | COc1cccc(C(=O)OC[C@H]2O[C@H](O[C@H]3O[C@H](COC(=O)c4cccc(OC)c4OC)[C@@H](O)[C@H](O)[C@H]3O)[C@H](O)[C@@H](O)[C@@H]2O)c1OC [UM1013] | 3 | 37 µM
13 | CN(C)c1cccc(C(=O)OC[C@H]2O[C@H](O[C@H]3O[C@H](COC(=O)c4cccc(N(C)C)c4)[C@@H](O)[C@H](O)[C@H]3O)[C@H](O)[C@@H](O)[C@@H]2O)c1 [UM1076] | 1.3 | 3.7 µM
14 | Cc1ccc(-c2cccc(C(=O)OC[C@H]3O[C@H](O[C@H]4O[C@H](COC(=O)c5cccc(-c6ccc(C)cc6)c5)[C@@H](O)[C@H](O)[C@H]4O)[C@H](O)[C@@H](O)[C@@H]3O)c2)cc1 [UM1058] | 2.5 | 33 µM
15 | O=C(OC[C@H]1O[C@H](O[C@H]2O[C@H](COC(=O)c3cccc(-c4cccc(O)c4)c3)[C@@H](O)[C@H](O)[C@H]2O)[C@H](O)[C@@H](O)[C@@H]1O)c1cccc(-c2cccc(O)c2)c1 [UM1057] | 1.8 | 33 µM
16 | Cc1cc(C)cc(C(=O)NC[C@H]2O[C@H](O[C@H]3O[C@H](CNC(=O)c4cc(C)cc(C)c4)[C@@H](O)[C@H](O)[C@H]3O)[C@H](O)[C@@H](O)[C@@H]2O)c1 [UM1108] | 33 | 3 µM
17 | COc1ccc(C(F)(F)F)cc1C(=O)OC[C@H]1O[C@H](O[C@H]2O[C@H](COC(=O)c3cc(C(F)(F)F)ccc3OC)[C@@H](O)[C@H](O)[C@H]2O)[C@H](O)[C@@H](O)[C@@H]1O [UM1045] | 1.3 | 0.05 µM
18 | O=C(OC[C@H]1O[C@H](O[C@H]2O[C@H](COC(=O)c3cccc(-c4ccccc4)c3O)[C@@H](O)[C@H](O)[C@H]2O)[C@H](O)[C@@H](O)[C@@H]1O)c1cccc(-c2ccccc2)c1O [UM1063] | 2.5 | 100 µM
19 | Cc1cc(C)c(C)c(C(=O)OC[C@H]2O[C@H](O[C@H]3O[C@H](COC(=O)c4c(C)c(C)cc(C)c4C)[C@@H](O)[C@H](O)[C@H]3O)[C@H](O)[C@@H](O)[C@@H]2O)c1C [UM1113] | 11 | 2.5 µM
20 | COc1cc(-c2cccc(C(=O)OC[C@H]3O[C@H](O[C@H]4O[C@H](COC(=O)c5cccc(-c6ccc(F)c(OC)c6)c5)[C@@H](O)[C@H](O)[C@H]4O)[C@H](O)[C@@H](O)[C@@H]3O)c2)ccc1F [UM1059] | 1.8 | 33 µM
21 | O=C(CCc1ccc(O)c(-c2ccccc2)c1)OC[C@H]1O[C@H](O[C@H]2O[C@H](COC(=O)CCc3ccc(O)c(-c4ccccc4)c3)[C@@H](O)[C@H](O)[C@H]2O)[C@H](O)[C@@H](O)[C@@H]1O [UM1064] | 2.5 | 100 µM
22 | Cc1cccc(C)c1C(=O)OC[C@H]1O[C@H](O[C@H]2O[C@H](COC(=O)c3c(C)cccc3C)[C@@H](O)[C@H](O)[C@H]2O)[C@H](O)[C@@H](O)[C@@H]1O [UM1114] | 11 | 2.5 µM
23 | O=C(OC[C@H]1O[C@H](O[C@H]2O[C@H](COC(=O)c3cccc(-c4ccccc4)c3)[C@@H](O)[C@H](O)[C@H]2O)[C@H](O)[C@@H](O)[C@@H]1O)c1cccc(-c2ccccc2)c1 [UM1040] | 0.9 | 100 µM
24 | O=C(OC[C@H]1O[C@H](O[C@H]2O[C@H](CO)[C@@H](O)[C@H](O)[C@H]2O)[C@H](O)[C@@H](O)[C@@H]1O)c1ccccc1C(F)(F)F [UM1121] | 11 | 2.5 µM

What follows are compounds tested on peripheral blood mononuclear cells (PBMCs) (assay: IL-6 induction in fresh human PBMCs). Conditions: human IL-6; NR = no response.
Format: cell-based
Description: Tumor necrosis factor alpha (TNFα) and IL-6 production in peripheral blood mononuclear cells (PBMCs) was measured after exposure to various concentrations of the DAT compounds synthesized as shown above. Initial studies focused on two different methods of delivery of the DAT compounds to PBMC cultures. In the first delivery method, the indicated derivative compound was dissolved in isopropanol, serially diluted, and then dried to the bottom of a tissue culture plate. In the second delivery method, the indicated derivative compound was dissolved in DMSO and serially diluted into tissue culture media. In each method, PBMCs were added to the compounds and incubated at 37° C. TNFα (FIG. 1A) and IL-6 (FIG. 1B) were measured after 18-24 hours after treatment by ELISA assay.
The isolated PBMCs were exposed to increasing concentrations of the indicated compounds resuspended in DMSO and serially diluted in media. IL-6 levels were determined from supernatants eighteen hours after treatment (FIG. 3).

Row | SMILES | Maximum cytokine response h-IL-6 | Minimal Effective Concentration h-IL-6
25 | CCOc1cc(C(=O)NC[C@H]2O[C@H](O[C@H]3O[C@H](CNC(=O)c4cc(OCC)c(OCC)c(OCC)c4)[C@@H](O)[C@H](O)[C@H]3O)[C@H](O)[C@@H](O)[C@@H]2O)cc(OCC)c1OCC [UM1110] | 1 OD | 100 µM
26 | CCCOc1cc(OCCC)cc(C(=O)OC[C@H]2O[C@H](O[C@H]3O[C@H](COC(=O)c4cc(OCCC)cc(OCCC)c4)[C@@H](O)[C@H](O)[C@H]3O)[C@H](O)[C@@H](O)[C@@H]2O)c1 [UM1050] | 3.3 OD | 9 µM
27 | O=C(OC[C@H]1O[C@H](O[C@H]2O[C@H](COC(=O)c3cc(C(F)(F)F)cc(C(F)(F)F)c3)[C@@H](O)[C@H](O)[C@H]2O)[C@H](O)[C@@H](O)[C@@H]1O)c1cc(C(F)(F)F)cc(C(F)(F)F)c1 [UM1054] | 1.5 OD | 100 µM
28 | O=C(OC[C@H]1O[C@H](O[C@H]2O[C@H](COC(=O)c3cccc(-c4ccccc4O)c3)[C@@H](O)[C@H](O)[C@H]2O)[C@H](O)[C@@H](O)[C@@H]1O)c1cccc(-c2ccccc2O)c1 [UM1060] | 3.3 OD | 33.3 µM
29 | Cc1ccc(C)c(C(C)(C)CC(=O)OC[C@H]2O[C@H](O[C@H]3O[C@H](COC(=O)CC(C)(C)c4cc(C)ccc4C)[C@@H](O)[C@H](O)[C@H]3O)[C@H](O)[C@@H](O)[C@@H]2O)c1 [UM1137] | 1 OD | 100 µM
30 | O=C(OC[C@H]1O[C@H](O[C@H]2O[C@H](COC(=O)c3cccc(C(F)(F)F)c3O)[C@@H](O)[C@H](O)[C@H]2O)[C@H](O)[C@@H](O)[C@@H]1O)c1cccc(C(F)(F)F)c1O [UM1053] | 0.5 OD | 100 µM
31 | CCOc1cc(C(=O)OC[C@H]2O[C@H](O[C@H]3O[C@H](COC(=O)c4ccc(OCc5ccccc5)c(OCC)c4)[C@@H](O)[C@H](O)[C@H]3O)[C@H](O)[C@@H](O)[C@@H]2O)ccc1OCc1ccccc1 [UM1134] | 0.5 OD | 100 µM
32 | COc1cc(C(=O)OC[C@H]2O[C@H](O[C@H]3O[C@H](COC(=O)c4cc(OC)c(Br)c(OC)c4)[C@@H](O)[C@H](O)[C@H]3O)[C@H](O)[C@@H](O)[C@@H]2O)cc(OC)c1Br [UM1077] | 2.5 OD | 100 µM
33 | CCOc1cc(C(C)(C)C)ccc1C(=O)OC[C@H]1O[C@H](O[C@H]2O[C@H](COC(=O)c3ccc(C(C)(C)C)cc3OCC)[C@@H](O)[C@H](O)[C@H]2O)[C@H](O)[C@@H](O)[C@@H]1O [UM1132] | 2.6 OD | 100 µM
